From ChEMBL document CHEMBL4433223, “Treatment of Prostate Cancers and Kennedy's Disease by PROTAC-Androgen Receptor Degradation” (ACS Med Chem Lett, 2019)

Tests used:
[1] = AUC (0 to 24 hrs) in CD1 mouse at 10 mg/kg, sc by LC/MS/MS analysis; assay type: ADME, organism-based; parameters: dose 10 mg/kg, time < 24 hr, route subcutaneous; conditions: in vivo
[2] = biological target: T1, von Hippel-Lindau disease tumor suppressor/Androgen receptor (Homo sapiens, UniProt P10275+P40337); test: Protac activity against VHL/AR in human LNCAP cells assessed as induction of AR degradation incubated for 24 hrs by ELISA relative to untreated control; assay type: cell-based
Target sequence in this assay (P10275 whole entry, looked up): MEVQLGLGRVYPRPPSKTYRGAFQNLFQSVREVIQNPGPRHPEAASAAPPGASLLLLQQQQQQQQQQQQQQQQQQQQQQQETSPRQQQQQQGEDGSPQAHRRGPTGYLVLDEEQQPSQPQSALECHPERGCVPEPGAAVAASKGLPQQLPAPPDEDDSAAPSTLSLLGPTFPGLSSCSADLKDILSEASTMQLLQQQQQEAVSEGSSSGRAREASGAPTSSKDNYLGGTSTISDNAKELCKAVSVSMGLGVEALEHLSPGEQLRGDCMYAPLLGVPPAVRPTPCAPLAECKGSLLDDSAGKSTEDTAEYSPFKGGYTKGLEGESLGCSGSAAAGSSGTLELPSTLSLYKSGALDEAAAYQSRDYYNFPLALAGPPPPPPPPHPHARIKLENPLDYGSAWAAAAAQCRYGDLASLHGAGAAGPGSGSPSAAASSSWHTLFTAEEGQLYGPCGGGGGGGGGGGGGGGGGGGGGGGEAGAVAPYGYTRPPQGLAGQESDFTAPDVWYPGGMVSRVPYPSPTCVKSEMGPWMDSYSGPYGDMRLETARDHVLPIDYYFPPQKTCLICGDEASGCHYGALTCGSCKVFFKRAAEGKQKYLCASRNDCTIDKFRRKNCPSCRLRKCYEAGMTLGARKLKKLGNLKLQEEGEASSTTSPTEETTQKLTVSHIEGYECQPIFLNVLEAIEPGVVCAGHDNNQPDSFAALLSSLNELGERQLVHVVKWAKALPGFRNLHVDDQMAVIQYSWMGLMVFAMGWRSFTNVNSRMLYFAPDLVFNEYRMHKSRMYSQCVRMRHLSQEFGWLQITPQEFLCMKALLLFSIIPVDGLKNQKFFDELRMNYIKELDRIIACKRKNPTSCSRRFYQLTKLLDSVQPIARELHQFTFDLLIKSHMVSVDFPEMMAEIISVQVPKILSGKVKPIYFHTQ
Target sequence in this assay (P40337 whole entry, looked up): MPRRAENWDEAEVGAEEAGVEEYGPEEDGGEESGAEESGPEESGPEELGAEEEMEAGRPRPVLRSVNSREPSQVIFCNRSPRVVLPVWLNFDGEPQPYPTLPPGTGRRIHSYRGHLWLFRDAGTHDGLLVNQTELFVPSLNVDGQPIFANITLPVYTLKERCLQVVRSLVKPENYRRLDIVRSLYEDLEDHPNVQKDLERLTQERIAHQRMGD

[3] = biological target: T1, von Hippel-Lindau disease tumor suppressor/Androgen receptor; test: Protac activity against VHL/AR in human LNCAP cells assessed as induction of AR degradation incubated for 24 hrs by ELISA; assay type: cell-based
Target sequence in this assay (P10275 whole entry): as the sequence (P10275 whole entry, looked up) above
Target sequence in this assay (P40337 whole entry): as the sequence (P40337 whole entry, looked up) above

[4] = Cmax in CD1 mouse at 10 mg/kg, sc by LC/MS/MS analysis; assay type: ADME, organism-based; parameters: dose 10 mg/kg, route subcutaneous; conditions: in vivo
[5] = biological target: T1, von Hippel-Lindau disease tumor suppressor/Androgen receptor; test: Protac activity against VHL/AR in human VCAP cells assessed as induction of AR degradation incubated for 24 hrs by ELISA relative to untreated control; assay type: cell-based
Target sequence in this assay (P10275 whole entry, looked up): as the sequence (P10275 whole entry, looked up) above
Target sequence in this assay (P40337 whole entry, looked up): as the sequence (P40337 whole entry, looked up) above

[6] = biological target: T1, von Hippel-Lindau disease tumor suppressor/Androgen receptor; test: Protac activity against VHL/AR in human VCAP cells assessed as induction of AR degradation incubated for 24 hrs by ELISA; assay type: cell-based
Target sequence in this assay (P10275 whole entry): as the sequence (P10275 whole entry, looked up) above
Target sequence in this assay (P40337 whole entry): as the sequence (P40337 whole entry, looked up) above

Structure (SMILES)	AUC(0-t) at 24 h [1] [ng·h/mL]	Emax [2] [%]	DC50 [3] [nM]	Cmax [4] [ng/mL]	DC50 [6] [nM]	Emax [5] [%]
Cc1ncsc1-c1ccc(CNC(=O)[C@@H]2C[C@@H](O)CN2C(=O)[C@@H](NC(=O)COCCc2ccc(-c3ccc(C(=O)N[C@H]4C(C)(C)[C@H](Oc5ccc(C#N)c(Cl)c5)C4(C)C)cc3)cc2)C(C)(C)C)cc1	15600 to 40200	> 71	≤ 50	1530	–	–
Cc1ncsc1-c1ccc(CNC(=O)[C@@H]2C[C@@H](O)CN2C(=O)[C@@H](NC(=O)COCCCOCCN2CCC(c3ccc(N4C(=S)N(c5ccc(C#N)c(C(F)(F)F)c5)C(=O)C4(C)C)cc3)CC2)C(C)(C)C)cc1	15600 to 40200	51 to 70	≤ 501	–	–	26 to 50
Cc1ncsc1-c1ccc(CNC(=O)[C@@H]2C[C@@H](O)CN2C(=O)[C@@H](NC(=O)COCCCOCCCCCOc2ccc(N3C(=O)N(c4ccc(C#N)c(C(F)(F)F)c4)C(=O)C3(C)C)cc2)C(C)(C)C)cc1	15600 to 40200	> 71	≤ 50	1150	≤ 50	51 to 70

Further lines, with some results ahead:

AUC(0-t) at 24 h [1] [ng·h/mL]	Emax [2] [%]	DC50 [3] [nM]	Cmax [4] [ng/mL]	DC50 [6] [nM]	Structure (SMILES)	Emax [5] [%]
15600 to 40200	> 71	≤ 50	–	–	Cc1ncoc1-c1ccc(CNC(=O)[C@@H]2C[C@@H](O)CN2C(=O)[C@@H](NC(=O)COCc2ccc(OC(=O)N[C@H]3C(C)(C)[C@H](Oc4ccc(C#N)c(Cl)c4)C3(C)C)cc2)C(C)(C)C)cc1	–
15600 to 40200	> 71	≤ 50	1900	–	Cc1ncsc1-c1ccc([C@H](C)NC(=O)[C@@H]2C[C@@H](O)CN2C(=O)[C@@H](NC(=O)COCCCCCOc2ccc(C(=O)N[C@H]3C(C)(C)[C@H](Oc4ccc(C#N)c(Cl)c4)C3(C)C)cc2)C(C)(C)C)cc1	–
15600 to 40200	> 71	≤ 50	–	–	CC(C)(C)[C@H](NC(=O)COCCCCCOc1ccc(C(=O)N[C@H]2C(C)(C)[C@H](Oc3ccc(C#N)c(Cl)c3)C2(C)C)cc1)C(=O)N1C[C@H](O)C[C@H]1C(=O)NCc1ccc(-c2cncs2)cc1	–
